Laboratory results: patent US8993523B2, “Dimeric IAP inhibitors” (Novartis AG, priority 2010, dated 2015)

How the values were obtained:
XIAP-BIR3 = target: T1, XIAP-BIR3 (Homo sapiens, UniProt P98170); assay: Biacore SPR solution inhibition (competition with smac7mer peptide) binding assay, XIAP-BIR3; conditions: 100 nM XIAP-BIR3, competition with immobilised smac7mer peptide, 25° C.; read-out: XIAP-BIR3 Binding Biacore (Competitive) EC50
T1 construct: with either 100 nM XIAP-BIR3 or 6 nM cIAP1-BIR3
T1 sequence (P98170 241-356 limits assumed): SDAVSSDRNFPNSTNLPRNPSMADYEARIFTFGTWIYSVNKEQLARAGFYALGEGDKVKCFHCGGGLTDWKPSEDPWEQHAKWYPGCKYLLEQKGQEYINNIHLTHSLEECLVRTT
Source text: (§1) The present method includes utility of a Surface plasmon resonance (SPR)-based biosensor (Biacore™ GE Healthcare, Uppsala, Sweden) to examine competition between the compounds of the present invention and smac7mer peptide for XIAP-BIR3 and cIAP1-BIR3 binding groove occupancy.
(§2) Biacore™ utilizes the phenomenon of surface plasmon resonance (SPR) to detect and measure binding interactions. In a typical Biacore experiment, one of the interacting molecules is immobilized on a flexible dextran matrix while the interacting partner is flowed over the derivatized surface. A binding interaction results in an increase in mass on the sensor surface and a corresponding direct change in the refractive index of the medium in the vicinity of the sensor surface. Changes in refractive index or signal are recorded in resonance units (R.U.) Signal changes due to association and dissociation of complexes are monitored in a non-invasive manner, continuously and in real-time, the results of which are reported in the form of a sensorgram.
(§3) Solution Inhibition Assay Format:
(§4) Biacore™ T100 (GE Healthcare, Uppsala, Sweden) was used to conduct all experiments reported herein. Sensor surface preparation and interaction analyses were performed at 25° C. Buffer and Biacore reagents were purchased from GE Healthcare. Running buffer containing 10 mM Hepes, pH7.4, 150 mM sodium chloride, 1.25 mM Dithiothreitol, 2% Dimethyl sulfoxide and 0.05% polysorbate 20 was utilized throughout all experiments.
(§5) Biotinylated smac7mer peptide was diluted to 10 nM in running buffer and captured onto a sensor surface pre-derivatized with streptavidin (sensor chip SA) towards peptide surface densities in the range 40-100 R.U. Peptide captured surfaces were blocked with 500 μM PEO2-Biotin (Thermo Scientific).
(§6) Interaction analyses were performed by first equilibrating each compound within a six point seven fold compound dilution series in the range 1 μM to 0.06 nM with either 100 nM XIAP-BIR3 or 6 nM cIAP1-BIR3 for at least one hour during instrument start-up procedures. Protein compound mixtures were then injected over reference and smac7mer peptide surfaces in series for 60 seconds at a flow-rate of 60 μL/min. Surface regeneration was performed at the end of each analysis cycle by a 30 second injection of 10 mM Glycine, pH 2.5, 1M Sodium Chloride, 0.05% polysorbate 20. Additionally, control compound samples and control XIAP-BIR3 or cIAP1-BIR3 samples were prepared and run at regular intervals to monitor surface and assay performance.
(§7) Data analyses were carried out using Biacore™ T100 evaluation software v2.0 to validate assay quality. Binding level report points were plotted versus logarithmic compound concentration values and analyzed in Graphpad prism 5 via non-linear regression using a one-site competition model. EC50 values were generated and used as a measure of inhibitor potency.

xenograft tumors = assay: In vivo combination study in xenograft tumor mice; conditions: 1× per week, mice with xenograft tumors, 2-3 weeks
Protocol: In vivo combination studies were performed as follows. Cohorts of mice (n=8) were treated with (1) Cohort A: Example 1A (1.8 mg/kg, 1× per week), (2) Cohort B: Paclitaxel (12 mg/kg, 1× per week), or (3) Cohort C: a combination of Example 1A (1.8 mg/kg, 1× per week)+Paclitaxel (12 mg/kg, 1× per week). Studies typically initiated dosing when xenograft tumors were 200 mm^3 and lasted 2-3 weeks. Positive combination activity occurs when neither single agent treatment alone results in tumor regression (i.e. increase in tumor volume is not inhibited in treated animals) but the combination results in tumor regression (i.e. tumor volume decreases in treated animals).

Panc3.27 tumor cells = assay: Cellular assay: Panc3.27 tumor cell proliferation (Cell Titer Glo); assay type: cell-based; conditions: Panc3.27 cells, 72 hour treatment, read-out: PANC proliferation IC50
Protocol: Cellular Assay—Treatment of Panc3.27 Tumor Cells with Dimeric IAP Antagonists
On day one adherent Panc3.27 cells are plated into two 96-well, clear, flat bottom plates. All wells in row A contain 90 uL of media. All wells in rows B-G contain a total volume of 90 uL per well and 4000 cells per well for Panc3.27 cell lines. Plates are then incubated overnight for 18 hours at 37° C., 5% CO2.
On day two cells are treated with the compounds of formula M-L-M′. Treatments are done in triplicate. The compounds are first serially diluted in DMSO and then added to media giving a final concentration of 0.2% DMSO when added to cells. Cells are treated with 10 uL of serially diluted compounds of formula M-L-M′ at a final concentration of 1000 nM, 200 nM, 40 nM, 8 nM, 1.6 nM, 0.32 nM, 0.06 nM, 0.013 nM, 0.0026 nM, and one untreated well. Plate two is used as a time zero plate.
To measure cell viability 50 uL of Cell Titer Glo (CTG) solution is added to row A, media only and B, cells and media. CTG is purchased from Promega Corporation catalog number G7573. The solution is prepared according to manufacturer's instructions. CTG measures the amount of ATP released from viable cells that is proportional to the number of cells in each well. After incubating for ten minutes with CTG plates are measured on a luminescent reader at 700 nm wavelength. Read time is approximately one second per well for a 96-well plate.
On day five 50 uL of CTG is added to plate one, rows A-G, incubated for 10 minutes at room temperature and read on a luminescent reader. Raw data is adjusted to account for the time zero plate as well as background noise. Triplicate values are averaged and percent control growth is calculated. Percent control growth is calculated using the following logical test: If well read data point (a) is greater than time zero data point (t=0), then 100*[(a)−(t=0)]/[(72 hour total growth)−(t=0)], OR 100*[(a)−(t=0)]/[(t=0)]. Data is represented by line graph with the concentration of compound on the x axis and percent control growth on the y axis.

cIAP1-BIR3 = target: T2, cIAP1-BIR3 (Homo sapiens, UniProt Q13490); assay: Biacore SPR solution inhibition (competition with smac7mer peptide) binding assay, cIAP1-BIR3; conditions: 6 nM cIAP1-BIR3, competition with immobilised smac7mer peptide, 25° C.; read-out: CIAP-BIR3 Binding Biacore (Competitive) EC50
T2 construct: with either 100 nM XIAP-BIR3 or 6 nM cIAP1-BIR3
T2 sequence (Q13490 260-352 limits assumed): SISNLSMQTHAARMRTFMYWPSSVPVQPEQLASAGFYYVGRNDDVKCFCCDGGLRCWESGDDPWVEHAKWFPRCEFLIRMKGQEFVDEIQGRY
Source text: as §1, §2, §3, §4, §5, §6, §7

| EC50 (XIAP-BIR3) | IC50 (Panc3.27 tumor cells) | EC50 (cIAP1-BIR3) | Molecule | tumor response, single agent (xenograft tumors; Cohort A: 1.8 mg/kg) | tumor growth control (xenograft tumors; Cohort B: 12 mg/kg) |
| --- | --- | --- | --- | --- | --- |
| 34.5 to 56.9 nM | 0.0026 to 0.83 nM | 0.24 to 0.57 nM | CN[C@@H](C)C(=O)N[C@H](C(=O)N1CCC[C@H]1c1cncc(-n2ccc3c(C(=O)NCCCOCCOCCCNC(=O)c4cccc5c4ccn5-c4cncc([C@@H]5CCCN5C(=O)[C@@H](NC(=O)[C@H](C)NC)C(C)C)c4)cccc32)c1)C(C)C [Example 1A, (S,S,S)—N,N′-(3,3′-(Ethane-1,2-diylbis(oxy))bis(propane-3,1-diyl))bis(1-(5-((S)-1-((S)-3-methyl-2-((S)-2-(methylamino)-propanamido)butanoyl)pyrrolidin-2-yl)pyridin-3-yl)-1H-indole-4-carboxamide)] | tumor stasis was achieved |  |
| 25.5 to 25.8 nM | < 0.0026 nM | 1.71 to 1.73 nM | CN[C@@H](C)C(=O)N[C@H](C(=O)N1CCC[C@H]1c1cncc(-n2cc(C(=O)NCCCCCCNC(=O)c3cn(-c4cncc([C@@H]5CCCN5C(=O)[C@@H](NC(=O)[C@H](C)NC)C(C)C)c4)c4ccccc34)c3ccccc32)c1)C(C)C [Example 2L, (S,S,S)—N,N′-(hexane-1,6-diyl)bis(1-(5-((S)-1-((S)-3-methyl-2-((S)-2-(methylamino)propanamido)butanol)pyrrolidin-2-yl)pyridin-3-yl)-1H-indole-3-carboxamide)] |  |  |
| 26.1 to 26.4 nM | < 0.0026 nM | 0.7 to 0.71 nM | CN[C@@H](C)C(=O)N[C@H](C(=O)N1CCC[C@H]1c1cncc(-n2cc(C(=O)N[C@H]3CC[C@H](NC(=O)c4cn(-c5cncc([C@@H]6CCCN6C(=O)[C@@H](NC(=O)[C@H](C)NC)C(C)C)c5)c5ccccc45)CC3)c3ccccc32)c1)C(C)C [Example 2M, 1-(5-((S)-1-((S)-3-methyl-2-((S)-2-(methylamino)propanamido)-butanoyl)pyrrolidin-2-yl)pyridin-3-yl)-N-((1S,4S)-4-(1-(5-((S)-1-((S)-3-methyl-2-((S)-2-(methylamino)propanamido)butanoyl)pyrrolidin-2-yl)pyridin-3-yl)-1H-indole-3-carboxamido)cyclohexyl)-1H-indole-3-carboxamide] |  |  |
| 70.9 to 71 nM | < 0.0026 nM | 1.21 to 1.23 nM | CN[C@@H](C)C(=O)N[C@H](C(=O)N1CCC[C@H]1c1cncc(-n2cc(C(=O)NCc3ccc(CNC(=O)c4cn(-c5cncc([C@@H]6CCCN6C(=O)[C@@H](NC(=O)[C@H](C)NC)C(C)C)c5)c5ccccc45)cc3)c3ccccc32)c1)C(C)C [Example 2P, (S,S,S)—N,N′-(1,4-phenylenebis(methylene))bis(1-(5-((S)-1-((S)-3-methyl-2-((S)-2-(methylamino)propanamido)butanoyl)pyrrolidin-2-yl)pyridin-3-yl)-1H-indole-3-carboxamide)] |  |  |
| 44.7 nM | 0.12 to 0.17 nM | 0.59 nM | [2H]C([2H])([2H])N[C@@H](C)C(=O)N[C@H](C(=O)N1CCC[C@H]1c1cncc(-n2ccc3c(C(=O)NCCCOCCOCCCNC(=O)c4cccc5c4ccn5-c4cncc([C@@H]5CCCN5C(=O)[C@@H](NC(=O)[C@H](C)NC([2H])([2H])[2H])C(C)C)c4)cccc32)c1)C(C)C [Example 3A, (S,S,S)—N,N′-(3,3′-(ethane-1,2-diylbis(oxy))bis(propane-3,1-diyl))bis(1-(5-((S)-1-((S)-3-methyl-2-((S)-2-(trideuteromethylamino)propanamido)butanoyl)-pyrrolidin-2-yl)pyridin-3-yl)-1H-indole-4-carboxamide)] |  |  |
|  |  |  | CC(=O)O[C@H]1C(=O)[C@@]2(C)[C@H]([C@H](OC(=O)c3ccccc3)[C@]3(O)C[C@H](OC(=O)[C@H](O)[C@@H](NC(=O)c4ccccc4)c4ccccc4)C(C)=C1C3(C)C)[C@]1(OC(C)=O)CO[C@@H]1C[C@@H]2O [Paclitaxel, reference compound] |  | > 50% |
| 49.8 to 52.2 nM | 0.14 to 2.86 nM | 0.6 to 1.1 nM | (S,S,S)—N,N′-(propane-1,3-diyl)bis(1-(5-((S)-1-((S)-3-methyl-2-((S)-2-(methylamino)propanamido)butanoyl)pyrrolidin-2-yl)pyridin-3-yl)-1H-indole-3-carboxamide) [Example 2A] |  |  |

| Molecule | EC50 (XIAP-BIR3) | IC50 (Panc3.27 tumor cells) | EC50 (cIAP1-BIR3) | tumor response, single agent (xenograft tumors; Cohort A: 1.8 mg/kg) | tumor growth control (xenograft tumors; Cohort B: 12 mg/kg) |
| --- | --- | --- | --- | --- | --- |
| CN[C@@H](C)C(=O)N[C@H](C(=O)N1CCC[C@H]1c1cncc(-n2cc(C(=O)N3CC4(C3)CN(C(=O)c3cn(-c5cncc([C@@H]6CCCN6C(=O)[C@@H](NC(=O)[C@H](C)NC)C(C)C)c5)c5ccccc35)C4)c3ccccc32)c1)C(C)C [Example 2N, (2S,2′S)—N,N′-((2S,2′S)-1,1′-((2S,2′S)-2,2′-(5,5′-(3,3′-(2,6-diazaspiro[3.3]heptane-2,6-diylbis(oxomethylene))bis(1H-indole-3,1-diyl))bis(pyridine-5,3-diyl))bis(pyrrolidine-2,1-diyl))bis(3-methyyl-1-oxobutane-2,1-diyl))bis(2-(methylamino)propanamide)] | 32.6 to 33.3 nM | 7.04 to 8.37 nM | 0.57 to 0.68 nM |  |  |
| CN[C@@H](C)C(=O)N[C@H](C(=O)N1CCC[C@H]1c1cncc(-n2cc(C(=O)N3CCN(C(=O)c4cn(-c5cncc([C@@H]6CCCN6C(=O)[C@@H](NC(=O)[C@H](C)NC)C(C)C)c5)c5ccccc45)CC3)c3ccccc32)c1)C(C)C [Example 2O, (2S,2′S)—N,N′-((2S,2′S)-1,1′-((2S,2′S)-2,2′-(5,5′-(3,3′-(piperazine-1,4-diylbis(oxomethylene))bis(1H-indole-3,1-diyl))bis(pyridine-5,3-diyl))bis(pyrrolidine-2,1-diyl))bis(3-methyl-1-oxobutane-2,1-diyl))bis(2-(methylamino)propanamide)] | 39 nM | 0.54 to 1.37 nM | 2.17 to 2.18 nM |  |  |
